Source: US9981942B2, “Piperidine derivatives having multimodal activity against pain” (LABORATORIOS DEL DR. ESTEVE S.A., priority 2013, dated 2018)

Molecular target: σ1 receptor and the μ-opiod receptor
Test: μ and σ1 dual binding: combined class from the Ki of both radioligand assays
Set-up: species or system human; key to μ and σ1 dual binding: +: Both Ki-μ and Ki-σ1>=500 nM; ++: One Ki<500 nM while the other Ki is >=500 nM; +++: Both Ki-μ and Ki-σ1<500 nM; ++++: Both Ki-μ and Ki-σ1<100 nM
Details: transfected HEK-293 membranes (σ1), transfected CHO-K1 cell membranes (μ); for μ and σ1 dual binding: combined class for Ki-μ and Ki-σ1
Experimental: To investigate binding properties of σ1 receptor ligands to human σ1 receptor, transfected HEK-293 membranes and [^3H](+)-pentazocine (Perkin Elmer, NET-1056), as the radioligand, were used. The assay was carried out with 7 μg of membrane suspension, 5 nM of [^3H](+)-pentazocine in either absence or presence of either buffer or 10 μM Haloperidol for total and non-specific binding, respectively. Binding buffer contained Tris-HCl 50 mM at pH 8. Plates were incubated at 37° C. for 120 minutes. After the incubation period, the reaction mix was then transferred to MultiScreen HTS, FC plates (Millipore), filtered and plates were washed 3 times with ice-cold 10 mM Tris-HCL (pH7.4). Filters were dried and counted at approximately 40% efficiency in a MicroBeta scintillation counter (Perkin-Elmer) using EcoScint liquid scintillation cocktail
To investigate binding properties of mu-opioid receptor ligands to human μ-opioid receptor, transfected CHO-K1 cell membranes and [^3H]-DAMGO (Perkin Elmer, ES-542-C), as the radioligand, were used. The assay was carried out with 20 μg of membrane suspension, 1 nM of [^3H]-DAMGO in either absence or presence of either buffer or 10 μM Naloxone for total and non-specific binding, respectively. Binding buffer contained Tris-HCl 50 mM, MgCl2 5 mM at pH 7.4. Plates were incubated at 27° C. for 60 minutes. After the incubation period, the reaction mix was then transferred to MultiScreen HTS, FC plates (Millipore), filtered and plates were washed 3 times with ice-cold 10 mM Tris-HCL (pH 7.4). Filters were dried and counted at approximately 40% efficiency in a MicroBeta scintillation counter (Perkin-Elmer) using EcoScint liquid scintillation cocktail.
The following scale as been adopted for representing the binding to the σ1 receptor and the μ-opiod receptor expressed as Ki: • + Both Ki-μ and Ki-σ1>=500 nM • ++ One Ki<500 nM while the other Ki is >=500 nM • +++ Both Ki-μ and Ki-σ1<500 nM • ++++ Both Ki-μ and Ki-σ1<100 nM

SMILES | Ki range for both μ and σ1 (dual-binding class) [nM] | μ and σ1 dual binding
CS(=O)(=O)Nc1cccc(C2CCN(Cc3cn(-c4ccccc4F)nn3)CC2)c1 [Example 27, N-(3-(1-((1-(2-fluorophenyl)-1H-1,2,3-triazol-4-yl)methyl)piperidin-4-yl)phenyl)methanesulfonamide] | < 100 | –
CS(=O)(=O)Nc1cccc(C2CCN(Cc3cn(-c4cccc(F)c4)nn3)CC2)c1 [Example 28, N-(3-(1-((1-(3-fluorophenyl)-1H-1,2,3-triazol-4-yl)methyl)piperidin-4-yl)phenyl)methanesulfonamide] | < 100 | –
c1ccc(-n2cc(CN3CCC(c4cccc5[nH]ncc45)CC3)nn2)cc1 [Example 29, 4-(1-((1-phenyl-1H-1,2,3-triazol-4-yl)methyl)piperidin-4-yl)-1H-indazole] | < 500 | –
c1ccc(-n2cc(CN3CCC(c4cccc(-c5ncc[nH]5)c4)CC3)nn2)cc1 [Example 30, 4-(3-(1H-imidazol-2-yl)phenyl)-1-((1-phenyl-1H-1,2,3-triazol-4-yl)methyl)piperidine] | < 500 | –
CN(c1cccc(C2CCN(Cc3cn(-c4ccccc4)nn3)CC2)c1)S(C)(=O)=O [Example 31, N-methyl-N-(3-(1-((1-phenyl-1H-1,2,3-triazol-4-yl)methyl)piperidin-4-yl)phenyl)methanesulfonamide] | – | ++
O=C1Cc2c(cccc2C2CCN(Cc3cn(-c4ccccc4)nn3)CC2)N1 [Example 32, 4-(1-((1-phenyl-1H-1,2,3-triazol-4-yl)methyl)piperidin-4-yl)indolin-2-one] | – | ++
CS(=O)(=O)Nc1cc(C2CCN(Cc3cn(-c4ccccc4)nn3)CC2)ccc1F [Example 34, N-(2-fluoro-5-(1-((1-phenyl-1H-1,2,3-triazol-4-yl)methyl)piperidin-4-yl)phenyl)methanesulfonamide] | < 500 | –
CS(=O)(=O)Nc1cc(F)cc(C2CCN(Cc3cn(-c4ccccc4)nn3)CC2)c1 [Example 35, N-(3-fluoro-5-(1-((1-phenyl-1H-1,2,3-triazol-4-yl)methyl)piperidin-4-yl)phenyl)methanesulfonamide] | < 100 | –
Oc1cccc(C2CCN(Cc3cn(-c4ccc(F)cc4)nn3)CC2)c1 [Example 36, 3-(1-((1-(4-fluorophenyl)-1H-1,2,3-triazol-4-yl)methyl)piperidin-4-yl)phenol] | < 100 | –
CS(=O)(=O)Nc1cccc(C2CCN(Cc3cn(Cc4ccccc4)nn3)CC2)c1 [Example 37, N-(3-(1-((1-benzyl-1H-1,2,3-triazol-4-yl)methyl)piperidin-4-yl)phenyl)methanesulfonamide] | < 500 | –
CN(C)C(=O)Nc1cccc(C2CCN(Cc3cn(-c4ccccc4)nn3)CC2)c1 [Example 38, 1,1-dimethyl-3-(3-(1-((1-phenyl-1H-1,2,3-triazol-4-yl)methyl)piperidin-4-yl)phenyl)urea] | – | ++
CC(=O)Nc1cc(F)cc(C2CCN(Cc3cn(-c4ccccc4)nn3)CC2)c1 [Example 39, N-(3-fluoro-5-(1-((1-phenyl-1H-1,2,3-triazol-4-yl)methyl)piperidin-4-yl)phenyl)acetamide] | < 500 | –
Oc1cccc(C2CCN(Cc3cn(-c4ccc(Cl)c(Cl)c4)nn3)CC2)c1 [Example 40, 3-(1-((1-(3,4-dichlorophenyl)-1H-1,2,3-triazol-4-yl)methyl)piperidin-4-yl)phenol] | < 100 | –
Oc1cccc(C2CCN(Cc3cn(-c4ccc(Cl)cc4Cl)nn3)CC2)c1 [Example 41, 3-(1-((1-(2,4-dichlorophenyl)-1H-1,2,3-triazol-4-yl)methyl)piperidin-4-yl)phenol] | < 100 | –
Cc1nnc(-c2cccc(C3CCN(Cc4cn(-c5ccccc5)nn4)CC3)c2)o1 [Example 42, 2-methyl-5-(3-(1-((1-phenyl-1H-1,2,3-triazol-4-yl)methyl)piperidin-4-yl)phenyl)-1,3,4-oxadiazole] | < 500 | –
N#Cc1ccc(Cn2cc(CN3CCC(c4cccc(O)c4)CC3)nn2)cc1 [Example 43, 4-((4-((4-(3-hydroxyphenyl)piperidin-1-yl)methyl)-1H-1,2,3-triazol-1-yl)methyl)benzonitrile] | < 100 | –
COc1cccc(-n2cc(CN3CCC(c4cccc(O)c4)CC3)nn2)c1 [Example 44, 3-(1-((1-(3-methoxyphenyl)-1H-1,2,3-triazol-4-yl)methyl)piperidin-4-yl)phenol] | < 100 | –
CCN(CC)C(=O)Cn1cc(CN2CCC(c3cccc(O)c3)CC2)nn1 [Example 45, N,N-diethyl-2-(4-((4-(3-hydroxyphenyl)piperidin-1-yl)methyl)-1H-1,2,3-triazol-1-yl)acetamide] | – | ++
Oc1cccc(C2CCN(Cc3cn(C4CCc5ccccc54)nn3)CC2)c1 (stereo not drawn) [Example 46, 3-(1-((1-(2,3-dihydro-1H-inden-1-yl)-1H-1,2,3-triazol-4-yl)methyl)piperidin-4-yl)phenol] | < 100 | –
CS(=O)(=O)c1cccc(C2CCN(Cc3cn(-c4ccccc4)nn3)CC2)c1 [Example 47, 4-(3-(methylsulfonyl)phenyl)-1-((1-phenyl-1H-1,2,3-triazol-4-yl)methyl)piperidine] | < 500 | –
CS(=O)(=O)Nc1cccc(C2CCN(Cc3cn(C4CCc5ccccc54)nn3)CC2)c1 (stereo not drawn) [Example 48, N-(3-(1-((1-(2,3-dihydro-1H-inden-1-yl)-1H-1,2,3-triazol-4-yl)methyl)piperidin-4-yl)phenyl)methanesulfonamide] | < 500 | –
CC(=O)Nc1nc2c(C3CCN(Cc4cn(-c5ccccc5)nn4)CC3)cccc2s1 [Example 49, N-(4-(1-((1-Phenyl-1H-1,2,3-triazol-4-yl)methyl)piperidin-4-yl)benzo[d]thiazol-2-yl)acetamide] | < 100 | –
Nc1nc2c(C3CCN(Cc4cn(-c5ccccc5)nn4)CC3)cccc2s1 [Example 50, 4-(1-((1-phenyl-1H-1,2,3-triazol-4-yl)methyl)piperidin-4-yl)benzo[d]thiazol-2-amine] | < 100 | –
CC(C)NC(=O)c1cccc(C2CCN(Cc3cn(Cc4ccccc4)nn3)CC2)c1 [Example 51, 3-(1-((1-benzyl-1H-1,2,3-triazol-4-yl)methyl)piperidin-4-yl)-N-isopropylbenzamide] | ≥ 500 | –
Cc1ccc(C2CCN(Cc3cn(-c4ccccc4)nn3)CC2)cc1O [Example 52, 2-methyl-5-(1-((1-phenyl-1H-1,2,3-triazol-4-yl)methyl)piperidin-4-yl)phenol] | < 100 | –
CS(=O)(=O)Nc1cccc(C2CCN(Cc3cn(-c4ccccc4)nn3)CC2)c1F [Example 53, N-(2-fluoro-3-(1-((1-phenyl-1H-1,2,3-triazol-4-yl)methy)piperidin-4-yl)phenyl)methanesulfonamide] | < 100 | –
Oc1cccc(C2CCN(Cc3cn(Cc4ccncc4)nn3)CC2)c1 [Example 54, 3-(1-((1-(pyridin-4-ylmethyl)-1H-1,2,3-triazol-4-yl)methyl)piperidin-4-yl)phenol] | < 500 | –
